This note sets out measurements from patent publication US20230233483A1, “COMPOUND AND METHOD FOR THE TREATMENT OF CORONAVIRUSES” (Apteeus, priority 2020, published 2023).

The test system of the experiment is SARS-CoV-2 of lineage B1 containing the D614G mutation; SARS-CoV-2 of lineage B1.1.7. It is filed as cell-based.

Take `CC(C)(C)CC(C)(C)c1ccc(O)c(Cc2ccc(Cl)cc2Cl)c1` [clofoctol, 2-(2,4-Dichlorobenzyl)-4-(1,1,3,3-tetramethylbutyl)phenol]: the “Genomic replication of variants of SARS-CoV-2 (RT-qPCR)” value is recorded as “inhibits the genomic replication of variants of SARS-CoV-2”.
